# Source: patent US20110269817A1, “COMPOSITIONS AND METHODS RELATED TO SIRT1 FUNCTION” (The Regents of the University of California, priority 2008, published 2011)
# Entries after “also recorded” stand apart in the source; their conditions may differ. Read-outs that look alike come from different tables or passages of the source.
# Tests used:
# SIRT1 = molecular target: T1, SIRT1 (Homo sapiens, UniProt Q96EB6); experiment: BMAL1 deacetylation by SIRT1 in JEG3 cells transfected with Myc-CLOCK, Flag-Myc-BMAL1 and SIRT1-HA; assay type: cell-based; conditions: 1 mM NAD+ or 10 mM NAM for 16 hr
# T1 construct: expressed in transfected cells; host or cells: JEG3
# T1 sequence (Q96EB6 1-747): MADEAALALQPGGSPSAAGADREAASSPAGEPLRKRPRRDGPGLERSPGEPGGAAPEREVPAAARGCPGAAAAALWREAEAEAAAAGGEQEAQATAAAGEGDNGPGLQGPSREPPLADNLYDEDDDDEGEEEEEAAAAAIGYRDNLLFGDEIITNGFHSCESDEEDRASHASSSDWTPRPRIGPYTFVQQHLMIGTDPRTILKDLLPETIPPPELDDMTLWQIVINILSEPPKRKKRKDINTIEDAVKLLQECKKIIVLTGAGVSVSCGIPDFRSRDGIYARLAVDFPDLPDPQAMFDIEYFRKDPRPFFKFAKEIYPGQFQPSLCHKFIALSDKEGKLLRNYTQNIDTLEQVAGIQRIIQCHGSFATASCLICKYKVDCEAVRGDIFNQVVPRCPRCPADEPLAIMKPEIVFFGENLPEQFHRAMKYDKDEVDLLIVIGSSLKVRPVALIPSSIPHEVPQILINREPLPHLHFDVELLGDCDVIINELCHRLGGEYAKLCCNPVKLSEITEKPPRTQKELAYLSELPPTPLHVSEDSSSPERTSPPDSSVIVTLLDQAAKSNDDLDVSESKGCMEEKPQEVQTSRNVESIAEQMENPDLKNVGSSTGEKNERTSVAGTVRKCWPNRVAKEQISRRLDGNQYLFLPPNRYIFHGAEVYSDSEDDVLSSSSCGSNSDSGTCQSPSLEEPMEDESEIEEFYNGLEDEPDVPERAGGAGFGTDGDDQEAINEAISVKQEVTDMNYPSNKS
# Description: (D) Deacetylation of BMAL1 by SIRT1 is NAD^+ dependent manner. JEG3 cells transfected with Myc-CLOCK and Flag-Myc-BMAL1 and SIRT1-HA were treated with 1 mM NAD^+ or 10 mM NAM for 16 hr before harvest. Immunoprecipitated BMAL1 proteins by FLAG antibody were probed with acetylated BMAL1 antibody. SIRT1 protein amount was detected by SIRT1 antibody.
# (§1) Recently we have reported that BMAL1 is rhythmically acetylated by CLOCK and that this event is essential for control of circadian function (Hirayama et al., 2007). We have generated an antibody that specifically recognizes acetylated BMAL1 at Lys537 (FIG. 10). Because of the interplay between CLOCK and SIRT1, we suspected that the deacetylase that could regulate the dynamic levels of BMAL1 acetylation could be SIRT1. To identify which class of HDAC is responsible for deacetylation of BMAL1, we treated cultured cells expressing Myc-CLOCK and Flag-Myc-BMAL1 with class I and II inhibitor, trichostatin A (TSA), and/or class III inhibitor, NAM, for 6 hr and 16 hr, respectively. […] We then coexpressed BMAL1 with CLOCK and confirmed that the anti-AcBMAL1 antibody readily recognizes CLOCK-induced acetylation at Lys537 (FIG. 6B). […] We also confirmed that SIRT1 readily deacetylates BMAL1 in an in vitro deacetylation assay (FIG. 11).
# CLOCK-SIRT1 interaction = CLOCK-SIRT1 interaction (coimmunoprecipitation) in transfected JEG3 cells; assay type: cell-based, human; conditions: treated 1, 2 and 6 h, 1 mM NAD+, 10 mM glucose, 1 mM pyruvate, 100 μM DFO, 100 μM resveratrol, 120 μM splitomicin
# Description: The effect of various agents on the CLOCK-SIRT1 interaction was analyzed. […] JEG3 cells were cultured in BME containing 10% FBS and transfected with Myc-CLOCK, Myc-BMAL1, and Flag-SIRT1 constructs. Negative control (NC) represents cells transfected only with Myc-CLOCK and Myc-BMAL1. 24 h after transfection cells were replated, allowed to readhere for another 16 hours, and treated with indicated reagents for 1, 2 and 6 hours. Here the results with 6 h treatment are shown, the same results were obtained at 1 h and 2 h. Nuclear extracts were processed as previously described (Hirayama et al. 2007). This experiment was performed 3 times and a representative result is shown.
# Legend: Lane 1: control (C); lane 2: 50% horse serum (HS); lane 3: 1 mM NAD^+ (NAD^+); lane 4: 10 mM glucose (Glc); lane 5: 1 mM pyruvate (Pyr); 6: 100 μM DFO (DF); lane 7: 100 μM resveratrol; (Res) lane 8:120 μM splitomicin (Split). Lane 9: negative control (NC).
# BMAL1 Lys537 acetylation = BMAL1 Lys537 acetylation in JEG3 cells expressing Myc-CLOCK and Flag-Myc-BMAL1, HDAC inhibitor treatment; assay type: cell-based, human; conditions: NAM (10 mM) 16 hr
# Description: (A) Class III HDAC inhibitor enhances BMAL1 Lys537 acetylation. JEG3 cells transfected with Myc-CLOCK and Flag-Myc-BMAL1 were treated with HDAC I and II inhibitor, TSA […], for 6 hr and HDAC III inhibitor, NAM (10 mM), for 16 hr before harvest. Immunoprecipitated BMAL1 proteins by FLAG antibody were subjected to SDS-PAGE and probed with acetylated BMAL1 or Myc antibodies.
# as §1
# [1] = test system: histone H3 Lys9/Lys14 acetylation at the Dbp transcription start site; experiment: ChIP assay of histone H3 (Lys9/Lys14) acetylation at dbp TSS in serum-shocked MEFs; assay type: cell-based, mouse; conditions: WT MEFs after serum shock, 10 mM NAM or
# Description: (B-D) Crosslinked cell extracts were isolated from MEF without treatment (B) or with SIRT1 inhibitors, 10 mMNAM (C), or […] (D) at indicated time points after serum shock, subjected to ChIP assay, and analyzed by quantitative PCR with dbp TSS primers (See FIG. 4C). Results of semiquantitative PCR are also shown at the bottom of each experiment. The value at time 16 in MEFs without treatment was set to 1. All data presented are the means±SEM of three independent samples.
# Conventional ChIP assay was used for histones from MEFs (Yamamoto et al., 2004). For nonhistone proteins, dual crosslinking ChIP assay (Nowak et al., 2005) was used with slight modifications. After serum shock, cells were washed three times with room temperature PBS, then PBS/1 mM MgCl2 was added. Disuccinimidyl Glutalate (DSG) was added to a final concentration of 2 mM for crosslinking. After 45 min at room temperature, formaldehyde was added to a final concentration of 1% (v/v) and cells incubated for 15 min. […]
# We analyzed the acetylation at Lys9 and Lys14 of histone H3 because we had previously found these to be preferential sites of CLOCK's HAT activity (Doi et al., 2006), and also because SIRT1 deacetylase function was described to be targeted to these lysines (Imai et al., 2000). […]
# [2] = test system: dbp expression levels in WT MEFs; experiment: dbp circadian expression in serum-shocked WT MEFs treated with SIRT1 inhibitors, quantitative PCR; assay type: cell-based, mouse
# Description: (A) Dbp expression levels in MEFs either treated with SIRT1 inhibitors (10 mMNAM or […]) or not were analyzed by quantitative PCR. The value at time 20 in MEFs without treatment was set to 1.
# (§2) MEFs were generated from WT or homozygous Sirt1−/− sibling mice and cultured in DMEM (4.5 g/l glucose) supplemented with 7.5% newborn bovine serum, 2.5% FBS, and antibiotics. JEG3 cells were grown in Basal Medium Eagle supplemented with 10% FBS and antibiotics.
# Each quantitative real-time RT-PCR was performed using the Chromo4 real time detection system (BIO-RAD). The PCR primers for mDbp mRNA, mPer2 mRNA, mCry 1 mRNA, 18S rRNA, Dbp UP, Dbp E-box, Dbp 30R, and mSIRT1 mRNA were described (Ripperger and Schibler, 2006; Rodgers et al., 2005; Yamamoto et al., 2004). PCR primers for Dbp TSS were designed using Real-Time PCR Primer Design (https://www.genscript.com/ssl-bin/app/primer), and the sequences are available upon request. For a […] PCR, 50 ng of cDNA template was mixed with the primers to final concentrations of 200 nM and […] of iQ SYBR Green Supermix (BIO-RAD), respectively. The reaction was first incubated at 95° C. for 3 min, followed by 40 cycles at 95° C. for 30 s and 60° C. for 1 min.
# Sirt1−/− MEFs = experiment: circadian gene expression in serum-shocked Sirt1−/− MEFs treated with SIRT1 inhibitors; assay type: cell-based, mouse
# Description: as §2
SMILES,BMAL1 deacetylation by SIRT1 (SIRT1),modulation of the CLOCK-SIRT1 interaction (CLOCK-SIRT1 interaction),circadian acetylation of histone H3 Lys9/Lys14 at Dbp TSS [1],also measured
"NC(=O)c1ccc[n+]([C@@H]2O[C@H](COP(=O)([O-])OP(=O)(O)OC[C@H]3O[C@@H](n4cnc5c(N)ncnc54)[C@H](O)[C@@H]3O)[C@@H](O)[C@H]2O)c1 [NAD^+, nicotinamide adenine dinucleotide]",responsive,not significantly modulated,,
Oc1ccc(C=Cc2cc(O)cc(O)c2)cc1 [resveratrol],,not significantly modulated,,
"NC(=O)c1cccnc1 [NAM, nicotinamide]",significantly attenuated,,"loss in the circadian oscillation of acetylation, generating a noncyclic, high level of Lys9/Lys14 acetylation","acetylation of BMAL1 at Lys537 (BMAL1 Lys537 acetylation): significantly increased; dbp expression pattern (circadian oscillation) ([2]; WT MEFs after serum shock, 10 mM NAM or splitomicin): significantly broader phase and higher amplitude in the oscillation; also recorded: loss in stringency of circadian gene expression; effect of SIRT1 inhibitors on circadian gene expression in Sirt1−/− MEFs (Sirt1−/− MEFs): no effect"
CC(=O)N(O)CCCCCNC(=O)CCC(=O)N(O)CCCCCNC(=O)CCC(=O)N(O)CCCCCN [desferroxamine],,not significantly modulated,,
O=C1CCc2c(ccc3ccccc23)O1 [splitomicin],,not significantly modulated,"loss in the circadian oscillation of acetylation, generating a noncyclic, high level of Lys9/Lys14 acetylation","dbp expression pattern (circadian oscillation) [2]: significantly broader phase and higher amplitude in the oscillation; also recorded: loss in stringency of circadian gene expression; effect of SIRT1 inhibitors on circadian gene expression in Sirt1−/− MEFs (Sirt1−/− MEFs; Sirt1−/− MEFs, data not shown): no effect"
